Consider seven compounds from ChEMBL document CHEMBL1156337, “Synthesis and evaluation of novel benzothiazole derivatives based on the bithiophene structure as potential radiotracers for beta-amyloid plaques in Alzheimer's disease” (Bioorg Med Chem, 2010).

A short description of experiment [1]: Displacement of [125I]TZDM from amyloid beta (1 to 40) aggregates after 2 hrs. (In a radioligand displacement assay an active substance lowers the binding of a labelled ligand.)
The nature of experiment [2]: Displacement of [125I]TZDM from amyloid beta (1 to 42) aggregates after 2 hrs.
The species entered for experiment [3] is Mus musculus. In words: Binding affinity to beta amyloid plaques in brain sections of TgC57 transgenic mouse transfected with APP and PS1 double mutant after 10 mins using thioflavin-S stain. Format: tissue-based.
The species entered for experiment [4] is Mus musculus. In words: Binding affinity to beta amyloid plaques in brain sections of TgC57 transgenic mouse transfected with APP and PS1 double mutant after 30 mins by autoradiography in the presence of thioflavin-T. The format is tissue-based. Conditions: tested as the 125I-labelled form.
The species entered for experiment [5] is Mus musculus. In words: Binding affinity to beta amyloid plaques in brain sections of TgC57 transgenic mouse transfected with APP and PS1 double mutant after 30 mins by autoradiography. Conditions: tested as the 125I-labelled form. The format is tissue-based.
Experiment [6] can be described thus: Binding affinity to amyloid beta (1 to 40) aggregates after 2 hrs by saturation binding method.
The nature of experiment [7]: Binding affinity to amyloid beta (1 to 42) aggregates after 2 hrs by saturation binding method.

Molecules are shown by their SMILES. pKi: −log10 of the molar value. Active and inactive are the calls of the source. The rule behind the calls is not given here.

As usually defined, the pKi is the Ki on a negative log10 scale, so that one unit is a factor of ten. Read a high pKi as a low Ki.

For `COc1ccc2nc(-c3ccc(-c4ccc(Br)s4)s3)sc2c1`, the pKi in experiment [1] is 8.89; in experiment [2], 9.68. In experiment [3], the result was Active.
In experiment [1], `CNc1ccc(-c2nc3ccc(O)cc3s2)cc1` [PITTSBURGH COMPOUND B UNLABELLED] showed a negative-log Ki (pKi) of 9.11.
Consider `Brc1ccc2nc(-c3ccc(-c4cccs4)s3)sc2c1`, for which the pKi in experiment [1] is 9.24; in experiment [2] it was 9.22. Moreover, the result in experiment [3] was Active.
For the compound `c1csc(-c2ccc(-c3nc4ccccc4s3)s2)c1`, the figures for the negative-log Ki (pKi) in experiment [1] and in experiment [2] were 8.40 and 8.33, respectively. Moreover, the outcome in experiment [3] was Active.
Regarding `COc1ccc2nc(-c3ccc(-c4ccc(I)s4)s3)sc2c1`, in experiment [4], the result was inactive. Moreover, the values for the pKi in experiment [1] and in experiment [2] were 9.21 and 9.96, respectively. For the same compound, the result in experiment [5] and in experiment [3] was Active.
For `CN(C)c1ccc(-c2nc3ccc(I)cc3s2)cc1`, the pKi in experiment [1] is 8.66; in experiment [2], 9.05.
Consider `CN(C)c1ccc(-c2nc3ccc([125I])cc3s2)cc1`, for which the negative logarithm of the Ki (pKi) in experiment [6] was 10.05; in experiment [7] it was 9.89.
